Structures are written as SMILES.

The subject of the assay is RAW264.7. Put plainly: Inhibition of NFkappaB in LPS-challenged mouse RAW264.7 cells assessed as ratio of NFkappaB transcriptional activity to thymidine kinase transcriptional activity at 100 uM incubated for 30 mins prior to LPS-challenge measured after 6 hrs by dual luciferase reporter gene assay (reference value: 5.18+/-0.98). It counts as cell-based.

Take `COC1=C[C@@H]2[C@@H]3Cc4ccc(OC)c(OCc5cccc([N+](=O)[O-])c5)c4[C@]2(CCN3C)CC1=O`: the Ratio amounted to 4.18. Next, `COC1=C[C@@H]2[C@@H]3Cc4ccc(OC)c(OCc5cn(Cc6cccc(Cl)c6)nn5)c4[C@]2(CCN3C)CC1=O`: 2.88; `COC1=C[C@@H]2[C@@H]3Cc4ccc(OC)c(OCc5cn(Cc6ccccc6C#N)nn5)c4[C@]2(CCN3C)CC1=O`: 1.96; `COC1=C[C@@H]2[C@@H]3Cc4ccc(OC)c(OCc5ccc(C)cc5)c4[C@]2(CCN3C)CC1=O`: 5.24. Regarding `COC1=C[C@@H]2[C@@H]3Cc4ccc(OC)c(OCc5ccccc5Br)c4[C@]2(CCN3C)CC1=O`, the Ratio turned out to be 5.03.

On to `COC1=C[C@@H]2[C@@H]3Cc4ccc(OC)c(OCc5ccc(F)cc5)c4[C@]2(CCN3C)CC1=O`, for which the Ratio was 4.22. For `COC1=C[C@@H]2[C@@H]3Cc4ccc(OC)c(OCc5cn(Cc6cccc(C#N)c6)nn5)c4[C@]2(CCN3C)CC1=O`, the Ratio was determined as 2.86. As for `COC1=C[C@@H]2[C@@H]3Cc4ccc(OC)c(OCc5ccccc5[N+](=O)[O-])c4[C@]2(CCN3C)CC1=O`, the Ratio was 4.7. Next, `COC1=C[C@@H]2[C@@H]3Cc4ccc(OC)c(OCc5cccc(C#N)c5)c4[C@]2(CCN3C)CC1=O`: 4.28. `COC1=C[C@@H]2[C@@H]3Cc4ccc(OC)c(OCc5ccccc5C#N)c4[C@]2(CCN3C)CC1=O`: the Ratio is 5.09. Next, `COC1=C[C@@H]2[C@@H]3Cc4ccc(OC)c(OCc5cccc(C)c5)c4[C@]2(CCN3C)CC1=O`: 4.71. In the case of `COC1=C[C@@H]2[C@@H]3Cc4ccc(OC)c(OCc5cn(Cc6ccc(OC)cc6)nn5)c4[C@]2(CCN3C)CC1=O` it was 3.12; in that of `COC1=C[C@@H]2[C@@H]3Cc4ccc(OC)c(OCc5cn(Cc6ccccc6[N+](=O)[O-])nn5)c4[C@]2(CCN3C)CC1=O`, 2.32. In the case of `COC1=C[C@@H]2[C@@H]3Cc4ccc(OC)c(OCc5cn(Cc6c(Cl)cccc6Cl)nn5)c4[C@]2(CCN3C)CC1=O` it was 3.44; in that of `COC1=C[C@@H]2[C@@H]3Cc4ccc(OC)c(OCc5cn(Cc6cccc(Br)c6)nn5)c4[C@]2(CCN3C)CC1=O`, 2.46; in that of `COC1=C[C@@H]2[C@@H]3Cc4ccc(OC)c(OCc5cn(Cc6cccc([N+](=O)[O-])c6)nn5)c4[C@]2(CCN3C)CC1=O`, 3.17. Consider `COC1=C[C@@H]2[C@@H]3Cc4ccc(OC)c(OCc5cn(Cc6ccccc6F)nn5)c4[C@]2(CCN3C)CC1=O`, for which the Ratio came out at 3.13. In the case of `COC1=C[C@@H]2[C@@H]3Cc4ccc(OC)c(OCc5cn(Cc6ccc(F)cc6)nn5)c4[C@]2(CCN3C)CC1=O` it was 1.98. In the case of `COC1=C[C@@H]2[C@@H]3Cc4ccc(OC)c(O)c4[C@]2(CCN3C)CC1=O` it was 4.41; in that of `COC1=C[C@@H]2[C@@H]3Cc4ccc(OC)c(OCc5cn(Cc6ccc(Cl)cc6Cl)nn5)c4[C@]2(CCN3C)CC1=O`, 2.74. Next, `COC1=C[C@@H]2[C@@H]3Cc4ccc(OC)c(OCc5cn(Cc6ccc(C)cc6)nn5)c4[C@]2(CCN3C)CC1=O`: 3.37; `COC1=C[C@@H]2[C@@H]3Cc4ccc(OC)c(OCc5ccc(OC)cc5)c4[C@]2(CCN3C)CC1=O`: 4.85.

Turning to `COC1=C[C@@H]2[C@@H]3Cc4ccc(OC)c(OCc5cn(Cc6ccc(Br)cc6)nn5)c4[C@]2(CCN3C)CC1=O`, the Ratio turned out to be 4.19. Next, `COC1=C[C@@H]2[C@@H]3Cc4ccc(OC)c(OCc5ccccc5C)c4[C@]2(CCN3C)CC1=O`: 4.91; `COC1=C[C@@H]2[C@@H]3Cc4ccc(OC)c(OCc5cn(Cc6ccccc6Cl)nn5)c4[C@]2(CCN3C)CC1=O`: 2.39. In the case of `COC1=C[C@@H]2[C@@H]3Cc4ccc(OC)c(OCc5cn(Cc6ccccc6Br)nn5)c4[C@]2(CCN3C)CC1=O`, the Ratio was found to be 2.08. Next, `COC1=C[C@@H]2[C@@H]3Cc4ccc(OC)c(OCc5cn(Cc6cccc(F)c6)nn5)c4[C@]2(CCN3C)CC1=O`: 3.04; `COC1=C[C@@H]2[C@@H]3Cc4ccc(OC)c(OCc5cccc(Br)c5)c4[C@]2(CCN3C)CC1=O`: 4.51; `COC1=C[C@@H]2[C@@H]3Cc4ccc(OC)c(OCc5cn(Cc6ccc(C(C)(C)C)cc6)nn5)c4[C@]2(CCN3C)CC1=O`: 3.26. Regarding `COC1=C[C@@H]2[C@@H]3Cc4ccc(OC)c(OCc5cn(Cc6ccccc6)nn5)c4[C@]2(CCN3C)CC1=O`, the Ratio stood at 1.8. In the case of `COC1=C[C@@H]2[C@@H]3Cc4ccc(OC)c(OCc5cn(Cc6ccc(C#N)cc6)nn5)c4[C@]2(CCN3C)CC1=O` it was 3.61; in that of `COC1=C[C@@H]2[C@@H]3Cc4ccc(OC)c(OCc5ccccc5F)c4[C@]2(CCN3C)CC1=O`, 4.71; in that of `COC1=C[C@@H]2[C@@H]3Cc4ccc(OC)c(OCc5cn(Cc6ccc([N+](=O)[O-])cc6)nn5)c4[C@]2(CCN3C)CC1=O`, 3.63. For `COC1=C[C@@H]2[C@@H]3Cc4ccc(OC)c(OCc5ccc(Br)cc5)c4[C@]2(CCN3C)CC1=O`, the Ratio was found to be 4.82.

`COC1=C[C@@H]2[C@@H]3Cc4ccc(OC)c(OCc5cn(Cc6ccccc6C)nn5)c4[C@]2(CCN3C)CC1=O`: the Ratio was 3. Next, `COC1=C[C@@H]2[C@@H]3Cc4ccc(OC)c(OCc5cn(Cc6ccc(Cl)cc6)nn5)c4[C@]2(CCN3C)CC1=O`: 2.22. Next, `COC1=C[C@@H]2[C@@H]3Cc4ccc(OC)c(OCc5ccc([N+](=O)[O-])cc5)c4[C@]2(CCN3C)CC1=O`: 4.37; `COC1=C[C@@H]2[C@@H]3Cc4ccc(OC)c(OCc5cn(Cc6cccc(C)c6)nn5)c4[C@]2(CCN3C)CC1=O`: 2.98; `COC1=C[C@@H]2[C@@H]3Cc4ccc(OC)c(OCc5cccc(F)c5)c4[C@]2(CCN3C)CC1=O`: 4.53.

These data come from ChEMBL document CHEMBL2069225, “Design, synthesis and molecular docking studies of sinomenine derivatives” (Bioorg Med Chem Lett, 2012).
